For data set [1] the following is noted: Liquid; for mass density: 298.15 K, 101.33 kPa; for vapor or sublimation pressure: Ebulliometric method (Recirculating still).
Data set [2] in a line: refractive index (Na D-line) (dimensionless). The conditions noted are these: 293.15 K; 101.33 kPa; Liquid; Standard Abbe refractometry.

Data on three compounds can be found in the NIST ThermoML archive (doi:10.1021/je901026b).

The term mass density denotes mass per unit of volume. What is called vapor or sublimation pressure is the pressure of vapour in equilibrium with the condensed phase. A word on the refractive index: it is the speed of light in vacuum divided by its phase velocity in the sample.

± gives the expanded uncertainty stated by the source.

For the compound `CC(C)CC(C)(C)C` [2,2,4-trimethylpentane], in data set [1], the mass density is 687.8 ± 1.3 kg/m3. Besides, the “vapor or sublimation pressure” value in data set [1] (318.13 K) was 15.85 ± 0.11 kPa; in data set [1] (328.15 K), 23.68 ± 0.14 kPa; in data set [1] (338.15 K), 34.4 ± 0.19 kPa. The refractive index in data set [2] came out at 1.38894 ± 0.00045.
As to `CCC(C)(C)OC` [2-methoxy-2-methylbutane], the mass density in data set [1] is 765.85 ± 0.66 kg/m3. In addition, the “vapor or sublimation pressure” value came out at 23.96 ± 0.14 kPa in data set [1] (318.13 K); 35.45 ± 0.19 kPa in data set [1] (328.15 K); 35.45 ± 0.19 kPa in data set [1] (328.2 K); 51.05 ± 0.25 kPa in data set [1] (338.15 K); 51.05 ± 0.25 kPa in data set [1] (338.28 K). Further, the refractive index in data set [2] was 1.38614 ± 0.00041.
Consider `CC(C)(C)O` [2-methylpropan-2-ol], for which the mass density in data set [1] worked out at 780.44 ± 0.64 kg/m3. Besides, the “vapor or sublimation pressure” value in data set [1] (318.13 K) came to 17.95 ± 0.12 kPa; in data set [1] (328.2 K), 30.35 ± 0.17 kPa; in data set [1] (338.28 K), 48.93 ± 0.24 kPa.
